Assay results reported in PubChem BioAssay AID1259407 (Chemical Carcinogenesis Research Information System (CCRIS), 2018).
Activity calls are given as the source filed them. No rule for the calls is given here.

Test system: CCRIS mutagenicity, Ames/micronucleus/aberration tests
Assay: CCRIS mutagenicity studies
Text: The CCRIS database contains chemical records with carcinogenicity, mutagenicity, tumor promotion, and tumor inhibition test results. It was developed by the National Cancer Institute (NCI). Data are derived from studies cited in primary journals, current awareness tools, NCI reports, and other sources. Test results have been reviewed by experts in carcinogenesis and mutagenesis.
CCRIS provides historical information from the years 1985 - 2011. It is no longer updated.
This is an archive assay for CCRIS mutagenicity studies.

[1] = Test System: AMES SALMONELLA TYPHIMURIUM, Strain/Indicator: TA98, Metabolic Activation: HAMSTER, LIVER, S-9, AROCLOR 1254 (10%), Method: PREINCUBATION
[2] = Test System: AMES SALMONELLA TYPHIMURIUM, Strain/Indicator: TA98, Metabolic Activation: NONE, Method: PREINCUBATION
[3] = Test System: AMES SALMONELLA TYPHIMURIUM, Strain/Indicator: TA98, Metabolic Activation: RAT, LIVER, S-9, AROCLOR 1254 (10%), Method: PREINCUBATION
[4] = Test System: AMES SALMONELLA TYPHIMURIUM, Strain/Indicator: TA100, Metabolic Activation: HAMSTER, LIVER, S-9, AROCLOR 1254 (10%), Method: PREINCUBATION
[5] = Test System: AMES SALMONELLA TYPHIMURIUM, Strain/Indicator: TA100, Metabolic Activation: NONE, Method: PREINCUBATION
[6] = Test System: AMES SALMONELLA TYPHIMURIUM, Strain/Indicator: TA100, Metabolic Activation: RAT, LIVER, S-9, AROCLOR 1254 (10%), Method: PREINCUBATION
[7] = Test System: AMES SALMONELLA TYPHIMURIUM, Strain/Indicator: TA1535, Metabolic Activation: HAMSTER, LIVER, S-9, AROCLOR 1254 (10%), Method: PREINCUBATION
[8] = Test System: AMES SALMONELLA TYPHIMURIUM, Strain/Indicator: TA1535, Metabolic Activation: NONE, Method: PREINCUBATION
[9] = Test System: AMES SALMONELLA TYPHIMURIUM, Strain/Indicator: TA1535, Metabolic Activation: RAT, LIVER, S-9, AROCLOR 1254 (10%), Method: PREINCUBATION
[10] = Test System: AMES SALMONELLA TYPHIMURIUM, Strain/Indicator: TA1537, Metabolic Activation: HAMSTER, LIVER, S-9, AROCLOR 1254 (10%), Method: PREINCUBATION
[11] = Test System: AMES SALMONELLA TYPHIMURIUM, Strain/Indicator: TA1537, Metabolic Activation: NONE, Method: PREINCUBATION
[12] = Test System: AMES SALMONELLA TYPHIMURIUM, Strain/Indicator: TA1537, Metabolic Activation: RAT, LIVER, S-9, AROCLOR 1254 (10%), Method: PREINCUBATION
[13] = Test System: AMES SALMONELLA TYPHIMURIUM, Strain/Indicator: TA100, Metabolic Activation: NONE, Method: STANDARD PLATE
[14] = Test System: AMES SALMONELLA TYPHIMURIUM, Strain/Indicator: TA98, Metabolic Activation: NONE, Method: STANDARD PLATE
[15] = Test System: AMES SALMONELLA TYPHIMURIUM, Strain/Indicator: TA98, Metabolic Activation: RAT, LIVER, S-9, AROCLOR 1254, Method: STANDARD PLATE
[16] = Test System: AMES SALMONELLA TYPHIMURIUM, Strain/Indicator: TA100, Metabolic Activation: RAT, LIVER, S-9, AROCLOR 1254, Method: STANDARD PLATE
[17] = Test System: AMES SALMONELLA TYPHIMURIUM, Strain/Indicator: TA1535, Metabolic Activation: NONE, Method: STANDARD PLATE
[18] = Test System: AMES SALMONELLA TYPHIMURIUM, Strain/Indicator: TA1535, Metabolic Activation: RAT, LIVER, S-9, AROCLOR 1254, Method: STANDARD PLATE
[19] = Test System: AMES SALMONELLA TYPHIMURIUM, Strain/Indicator: TA1537, Metabolic Activation: NONE, Method: STANDARD PLATE
[20] = Test System: AMES SALMONELLA TYPHIMURIUM, Strain/Indicator: TA1538, Metabolic Activation: RAT, LIVER, S-9, AROCLOR 1254, Method: STANDARD PLATE

| SMILES | mutagenic call [1] | mutagenic call [2] | mutagenic call [3] | mutagenic call [4] | mutagenic call [5] | mutagenic call [6] | mutagenic call [7] | mutagenic call [8] | mutagenic call [9] | mutagenic call [10] | mutagenic call [11] | mutagenic call [12] | mutagenic call [13] | mutagenic call [14] | mutagenic call [15] | mutagenic call [16] | mutagenic call [17] | mutagenic call [18] | mutagenic call [19] | mutagenic call [20] | also measured |
| --- | --- | --- | --- | --- | --- | --- | --- | --- | --- | --- | --- | --- | --- | --- | --- | --- | --- | --- | --- | --- | --- |
| OCCO | inactive; negative | inactive; negative | inactive; negative | inactive; negative | inactive; negative | inactive; negative | inactive; negative | inactive; negative | inactive; negative | inactive; negative | inactive; negative | inactive; negative |  |  |  |  |  |  |  |  | mutagenic call (Test System: AMES SALMONELLA TYPHIMURIUM, Strain/Indicator: TA98, Metabolic Activation: RAT LIVER S-9, PHENOBARBITAL AND BETA-NAPHTHOFLAVONE, Method: PREINCUBATION): inactive; negative; mutagenic call (Test System: AMES SALMONELLA TYPHIMURIUM, Strain/Indicator: TA100, Metabolic Activation: RAT LIVER S-9, PHENOBARBITAL AND BETA-NAPHTHOFLAVONE, Method: PREINCUBATION): inactive; negative; mutagenic call (Test System: AMES SALMONELLA TYPHIMURIUM, Strain/Indicator: TA1535, Metabolic Activation: RAT LIVER S-9, PHENOBARBITAL AND BETA-NAPHTHOFLAVONE, Method: PREINCUBATION): inactive; negative; mutagenic call (Test System: AMES SALMONELLA TYPHIMURIUM, Strain/Indicator: TA1537, Metabolic Activation: RAT LIVER S-9, PHENOBARBITAL AND BETA-NAPHTHOFLAVONE, Method: PREINCUBATION): inactive; negative; mutagenic call (Test System: E.COLI, Strain/Indicator: WP2UVRA, Metabolic Activation: NONE, Method: PREINCUBATION): inactive; negative; mutagenic call (Test System: E.COLI, Strain/Indicator: WP2UVRA, Metabolic Activation: RAT LIVER S-9, PHENOBARBITAL AND BETA-NAPHTHOFLAVONE, Method: PREINCUBATION): inactive; negative; mutagenic call (Test System: MOUSE LYMPHOMA, Strain/Indicator: L5178Y (TK+/TK-), Metabolic Activation: NONE, Method: SUSPENSION/PLATE): inactive; negative; mutagenic call (Test System: MOUSE LYMPHOMA, Strain/Indicator: L5178Y (TK+/TK-), Metabolic Activation: RAT, LIVER, S-9, AROCLOR 1254, Method: SUSPENSION/PLATE): inactive; negative |
| O=C1CCCCC1=O |  |  |  |  |  |  |  |  |  |  |  |  | active; positive |  |  |  |  |  |  |  |  |
| CCCCC/C=C/C=O |  |  |  |  |  |  |  |  |  |  |  |  |  |  |  |  |  |  |  |  | mutagenic call (Test System: CHINESE HAMSTER V-79, Strain/Indicator: V-79/6-THIOGUANINE, Metabolic Activation: NONE, Method: STANDARD PLATE): active; positive; mutagenic call (Test System: CHINESE HAMSTER V-79, Strain/Indicator: V-79/OUABAIN, Metabolic Activation: NONE, Method: STANDARD PLATE): inactive; negative |
| CN(C)CCO | inactive; negative | inactive; negative | inactive; negative | inactive; negative | inactive; negative | inactive; negative | inactive; negative | inactive; negative | inactive; negative | inactive; negative | inactive; negative | inactive; negative | inactive; negative | inactive; negative | inactive; negative | inactive; negative | inactive; negative | inactive; negative | inactive; negative | inactive; negative | mutagenic call (Test System: AMES SALMONELLA TYPHIMURIUM, Strain/Indicator: TA97, Metabolic Activation: HAMSTER, LIVER, AROCLOR 1254 (10 OR 30%), Method: PREINCUBATION): inactive; negative; mutagenic call (Test System: AMES SALMONELLA TYPHIMURIUM, Strain/Indicator: TA97, Metabolic Activation: NONE, Method: PREINCUBATION): inactive; negative; mutagenic call (Test System: AMES SALMONELLA TYPHIMURIUM, Strain/Indicator: TA97, Metabolic Activation: RAT, LIVER, S-9, AROCLOR 1254 (10 OR 30%), Method: PREINCUBATION): inactive; negative; mutagenic call (Test System: AMES SALMONELLA TYPHIMURIUM, Strain/Indicator: TA98, Metabolic Activation: HAMSTER, LIVER, S-9, AROCLOR 1254 (30%), Method: PREINCUBATION): inactive; negative; mutagenic call (Test System: AMES SALMONELLA TYPHIMURIUM, Strain/Indicator: TA98, Metabolic Activation: RAT, LIVER, S-9, AROCLOR 1254 (30%), Method: PREINCUBATION): inactive; negative; mutagenic call (Test System: AMES SALMONELLA TYPHIMURIUM, Strain/Indicator: TA100, Metabolic Activation: HAMSTER, LIVER, S-9, AROCLOR 1254 (30%), Method: PREINCUBATION): inactive; negative; mutagenic call (Test System: AMES SALMONELLA TYPHIMURIUM, Strain/Indicator: TA100, Metabolic Activation: RAT, LIVER, S-9, AROCLOR 1254 (30%), Method: PREINCUBATION): inactive; negative; mutagenic call (Test System: AMES SALMONELLA TYPHIMURIUM, Strain/Indicator: TA1535, Metabolic Activation: HAMSTER, LIVER, S-9, AROCLOR 1254 (30%), Method: PREINCUBATION): inactive; negative; mutagenic call (Test System: AMES SALMONELLA TYPHIMURIUM, Strain/Indicator: TA1535, Metabolic Activation: RAT, LIVER, S-9, AROCLOR 1254 (30%), Method: PREINCUBATION): inactive; negative; mutagenic call (Test System: AMES SALMONELLA TYPHIMURIUM, Strain/Indicator: TA1537, Metabolic Activation: HAMSTER, LIVER, S-9, AROCLOR 1254 (30%), Method: PREINCUBATION): inactive; negative; mutagenic call (Test System: AMES SALMONELLA TYPHIMURIUM, Strain/Indicator: TA1537, Metabolic Activation: RAT, LIVER, S-9, AROCLOR 1254 (30%), Method: PREINCUBATION): inactive; negative; mutagenic call (Test System: AMES SALMONELLA TYPHIMURIUM, Strain/Indicator: TA1537, Metabolic Activation: RAT, LIVER, S-9, AROCLOR 1254, Method: STANDARD PLATE): inactive; negative; mutagenic call (Test System: AMES SALMONELLA TYPHIMURIUM, Strain/Indicator: TA1538, Metabolic Activation: NONE, Method: STANDARD PLATE): inactive; negative; mutagenic call (Test System: CHINESE HAMSTER OVARY, Strain/Indicator: CHO-K1-BH4, Metabolic Activation: NONE): inactive; negative; mutagenic call (Test System: CHINESE HAMSTER OVARY, Strain/Indicator: CHO-K1-BH4, Metabolic Activation: RAT, LIVER, S-9, AROCLOR 1254): inactive; negative |
| O=C1c2c(O)ccc(O)c2C(=O)C2C(O)=CC=C(O)C12 (stereo unspecified) |  |  |  |  |  |  |  |  |  |  |  |  | inactive; negative | inactive; negative | inactive; negative | inactive; negative | inactive; negative | inactive; negative | active; positive | inactive; negative |  |
